Measurements reported in ChEMBL document CHEMBL1129619, “New series of potent, orally bioavailable, non-peptidic cyclic sulfones as HIV-1 protease inhibitors” (J Med Chem, 1996).

Experiments:
[1] = Cytotoxic Concentration needed to produce 50% reduction in the number of viable MT2 cells assayed by metabolism of a tetrazolium dye.; type: cell-based; settings: human
MT2 [2] = experiment: Concentration needed to inhibit HIV-1 virus replication in MT2 cells by 50% as determined by XTT assay.; type: functional, cell-based; settings: Homo sapiens
MT2 [3] = experiment: Concentration needed to inhibit HIV-1 virus replication in MT2 cells by 90% as determined by XTT assay.; type: functional; settings: Homo sapiens
[4] = target: Human immunodeficiency virus type 1 protease (Human immunodeficiency virus 1, UniProt Q72874); experiment: Concentration needed to inhibit HIV- protease activity by 50%.
[5] = Selectivity ratio between EC50 ancd CC50 values of the compound; type: functional
[6] = Selective ratio between EC50 ancd CC50 values calculated; type: functional

Row | Compound | CC50 [1] | EC50 (MT2 [2]) | EC90 (MT2 [3]) | IC50 [4] | SI [5] | SI [6]
1 | O=S1(=O)[C@H](Cc2ccccc2)[C@H](OCc2cncs2)[C@H](O)[C@@H](O)[C@@H](OCc2cncs2)[C@H]1Cc1ccccc1 | 40 µM | 6.5 nM | 40 nM | 0.3 nM | 6150 | –
2 | Nc1cccc(CO[C@@H]2[C@H](O)[C@@H](O)[C@@H](OCc3cccc(N)c3)[C@@H](Cc3ccccc3)S(=O)(=O)[C@@H]2Cc2ccccc2)c1 | 30 µM | 9 nM | – | 1 nM | – | 3330
3 | O=S1(=O)[C@H](Cc2ccccc2)[C@H](OCc2ccccc2)[C@H](O)[C@@H](O)[C@@H](OCc2ccccc2)[C@H]1Cc1ccccc1 | 6 µM | 40 nM | 70 nM | 0.6 nM | 150 | –
